From ChEMBL document CHEMBL5661974, “Pharmacologic characterization of a potent inhibitor of class I phosphatidylinositide 3-kinases” (Cancer Res, 2007)
Activity calls are given as the source filed them. The rule behind the calls is not given here.

Assays:
[1] = test system: A2780; assay: Antiproliferative activity against human A2780 cells harboring PI3KCA/PTEN mutant assessed as cell growth inhibition incubated for 96 hrs by SRB assay; format: functional
[2] = test system: U-87 MG; conditions: Homo sapiens, time 24.0 hrs
[3] = test system: HCT-116; assay: Antiproliferative activity against human HCT-116 cells harboring PI3KCA mutant assessed as cell growth inhibition incubated for 96 hrs by SRB assay; format: functional
[4] = test system: MDA-MB-435; assay: Antiproliferative activity against human MDA-MB-435 cells harboring AKT assessed as cell growth inhibition incubated for 96 hrs by SRB assay; format: functional
[5] = test system: U-87 MG; conditions: Homo sapiens, time 24.0 hrs; remark: listed apart in the source
[6] = test system: MDA-MB-468; assay: Antiproliferative activity against human MDA-MB-468 cells harboring PTEN deletion assessed as cell growth inhibition incubated for 96 hrs by SRB assay; format: functional
[7] = test system: Detroit 562; assay: Antiproliferative activity against human Detroit 562 cells harboring PI3KCA mutant assessed as cell growth inhibition incubated for 96 hrs by SRB assay; format: functional
[8] = test system: PC-3; assay: Antiproliferative activity against human PC-3 cells harboring PTEN deletion assessed as cell growth inhibition incubated for 96 hrs by SRB assay; format: functional
[9] = test system: HCT-116; assay: Inhibition of recombinant PI3K in human HCT-116 cells assessed as increase in cleavage of PARP at 10 times of GI50 concentration incubated for 24 hrs by immunoblot analysis; format: cell-based
[10] = test system: IGROV-1; assay: Antiproliferative activity against human IGROV-1 cells harboring PI3KCA/PTEN mutant assessed as cell growth inhibition incubated for 96 hrs by SRB assay; format: functional
[11] = test system: HCT-116; assay: Inhibition of recombinant PI3K in human HCT-116 cells assessed as increase in cleavage of PARP at 5 times of GI50 concentration incubated for 24 hrs by immunoblot analysis; format: cell-based
[12] = test system: A549; assay: Antiproliferative activity against human A549 cells harboring AKT assessed as cell growth inhibition incubated for 96 hrs by SRB assay; format: functional
[13] = test system: U-87 MG; assay: Antiproliferative activity against human U-87MG cells harboring PTEN deletion assessed as cell growth inhibition incubated for 96 hrs by SRB assay; format: functional, U-87MG ATCC

GI50 [1]: 5.58 µM
GI50 [3]: 10.5 µM
GI50 [4]: 15.3 µM
GI50 [6]: 6.5 µM
GI50 [8]: 4.6 µM
GI50 [12]: 9 µM
GI50 [13]: 9.8 µM
SMILES: O=c1cc(N2CCOCC2)oc2c(-c3ccccc3)cccc12 [LY-294002]
inhibition [2]: Active
inhibition [5]: Active
GI50 [7]: 12.1 µM
inhibition [9]: Active
GI50 [10]: 5.5 µM
inhibition [11]: Active
